Patent US12522595B2, “Bicyclic ether O-glycoprotein-2-acetamido-2-deoxy-3-D-glucopyranosidase inhibitors” (BIOGEN MA INC., priority 2019, dated 2026)
pIC50: −log10 of the molar value.

Biological target: T1, Recombinant full length human OGA enzyme (Homo sapiens, UniProt O60502)
T1 construct: Recombinant full length human OGA enzyme was purchased from Origene; purchased Origene
T1 sequence (O60502 1-916): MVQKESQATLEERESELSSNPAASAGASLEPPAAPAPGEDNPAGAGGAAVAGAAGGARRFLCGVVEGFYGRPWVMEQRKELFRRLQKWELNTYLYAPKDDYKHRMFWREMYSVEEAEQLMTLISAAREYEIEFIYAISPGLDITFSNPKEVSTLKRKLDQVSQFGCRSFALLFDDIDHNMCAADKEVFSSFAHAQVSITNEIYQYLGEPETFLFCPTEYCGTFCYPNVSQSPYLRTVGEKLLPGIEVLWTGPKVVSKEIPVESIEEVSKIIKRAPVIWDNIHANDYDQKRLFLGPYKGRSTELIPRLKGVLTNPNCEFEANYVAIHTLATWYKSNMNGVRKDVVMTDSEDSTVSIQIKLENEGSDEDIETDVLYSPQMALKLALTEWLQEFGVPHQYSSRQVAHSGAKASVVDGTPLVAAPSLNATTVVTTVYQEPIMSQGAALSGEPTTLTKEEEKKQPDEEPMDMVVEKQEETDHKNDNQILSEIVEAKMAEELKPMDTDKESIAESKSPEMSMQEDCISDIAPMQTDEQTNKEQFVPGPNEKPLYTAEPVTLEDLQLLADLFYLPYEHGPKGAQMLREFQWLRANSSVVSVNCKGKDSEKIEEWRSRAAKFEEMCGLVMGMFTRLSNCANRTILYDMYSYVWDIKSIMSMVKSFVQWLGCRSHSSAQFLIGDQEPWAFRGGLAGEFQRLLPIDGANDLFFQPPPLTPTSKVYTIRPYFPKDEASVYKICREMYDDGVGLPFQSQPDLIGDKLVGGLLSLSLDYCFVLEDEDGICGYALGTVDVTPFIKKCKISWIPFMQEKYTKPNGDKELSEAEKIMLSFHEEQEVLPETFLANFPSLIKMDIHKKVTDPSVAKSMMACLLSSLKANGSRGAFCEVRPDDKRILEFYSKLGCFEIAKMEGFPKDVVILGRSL
Experiment: OGA enzyme inhibition biochemical assay
Settings: 1 nM OGA, 100 μM 4-MUGlcNAc (Km), pH 6.4, 90 minutes at room temperature, 10-point dose-response from 20 μM
Outline: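 1 nM OGA with 100 μM 4-MUGlcNAc (Km) in McIlvaine buffer pH 6.4, 0.01% BSA, 90 min at room temperature; quenched with 3M glycine pH 10, fluorescence Ex 355/Em 460 nm. 10-point, 4-fold dilutions from 20 μM; 4-parameter variable-slope fit.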

**Q.** How did the pIC50 turn out when `CC(=O)Nc1ncc(CN2C[C@H](Oc3ncnc4cc(F)c(F)cc34)C[C@@H]2C)s1` [Example 35, N-(5-(((2S,4R)-4-((6,7-difluoroquinazolin-4-yl)oxy)-2-methylpyrrolidin-1-yl)methyl)thiazol-2-yl)acetamide] was run?
**A.** 6.96

**Q.** How did the pIC50 turn out when `CC(=O)Nc1ncc(CN2C[C@H](Oc3nccc4sccc34)C[C@@H]2C)s1` [Example 24, N-(5-(((2S,4R)-2-methyl-4-(thieno[3,2-c]pyridin-4-yloxy)pyrrolidin-1-yl)methyl)thiazol-2-yl)acetamide] was run?
**A.** 8.60

**Q.** With `CC(=O)Nc1nc(F)c(CN2C[C@H](Oc3nccc4cn(C)nc34)C[C@@H]2C)s1` [Example 137, N-(4-fluoro-5-(((2S,4R)-2-methyl-4-((2-methyl-2H-pyrazolo[3,4-c]pyridin-7-yl)oxy)pyrrolidin-1-yl)methyl)thiazol-2-yl)acetamide] as the compound, how does the pIC50 read?
**A.** 8.37

**Q.** With `CC(=O)Nc1nc(F)c(CN2C[C@H](Oc3ncnc4ncccc34)C[C@@H]2C)s1` [Example 119, N-(4-fluoro-5-(((2S,4R)-2-methyl-4-(pyrido[2,3-d]pyrimidin-4-yloxy)pyrrolidin-1-yl)methyl)thiazol-2-yl)acetamide] as the compound, how does the pIC50 read?
**A.** 8.96

**Q.** How did the pIC50 turn out when `CC(=O)Nc1nc(F)c(CN2C[C@H](Oc3ccc4ccnn4c3)C[C@@H]2C)s1` [Example 54, N-(4-fluoro-5-(((2S,4R)-2-methyl-4-(pyrazolo[1,5-a]pyridin-6-yloxy)pyrrolidin-1-yl)methyl)thiazol-2-yl)acetamide] was run?
**A.** > 9.00

**Q.** With `CC(=O)Nc1ncc(CN2C[C@H](Oc3cccc4nn(C)cc34)C[C@@H]2C)s1` [Example 83, N-(5-(((2S,4R)-2-methyl-4-((2-methyl-2H-indazol-4-yl)oxy)pyrrolidin-1-yl)methyl)thiazol-2-yl)acetamide] as the compound, how does the pIC50 read?
**A.** 8.96

**Q.** `CC(=O)Nc1ncc(CN2C[C@H](Oc3cccc4cnn(C)c34)C[C@@H]2C)s1` [Example 160, N-(5-(((2S,4R)-2-methyl-4-((1-methyl-1H-indazol-7-yl)oxy)pyrrolidin-1-yl)methyl)thiazol-2-yl)acetamide] was tested. Which pIC50 did it give?
**A.** 8.62

**Q.** With `COc1cc2c(O[C@@H]3C[C@H](C)N(Cc4sc(NC(C)=O)nc4F)C3)ccnc2cc1F` [Example 128, N-(4-fluoro-5-(((2S,4R)-4-((7-fluoro-6-methoxyquinolin-4-yl)oxy)-2-methylpyrrolidin-1-yl)methyl)thiazol-2-yl)acetamide] as the compound, how does the pIC50 read?
**A.** > 9.00

**Q.** `CC(=O)Nc1ncc(CN2C[C@H](Oc3ccnc4ccc(C)cc34)C[C@@H]2C)s1` [Example 23, N-(5-(((2S,4R)-2-methyl-4-((6-methylquinolin-4-yl)oxy)pyrrolidin-1-yl)methyl)thiazol-2-yl)acetamide] was tested. Which pIC50 did it give?
**A.** 8.62

**Q.** `CC(=O)Nc1nc(F)c(CN2C[C@H](Oc3ncc4cnn(C)c4n3)C[C@@H]2C)s1` [Example 142, N-(4-fluoro-5-(((2S,4R)-2-methyl-4-((1-methyl-1H-pyrazolo[3,4-d]pyrimidin-6-yl)oxy)pyrrolidin-1-yl)methyl)thiazol-2-yl)acetamide] was tested. Which pIC50 did it give?
**A.** > 9.00

**Q.** How did the pIC50 turn out when `CC(=O)Nc1ncc(CN2C[C@H](Oc3ncc4c(C)csc4n3)C[C@@H]2C)s1` [Example 3, N-(5-(((2S,4R)-2-methyl-4-((5-methylthieno[2,3-d]pyrimidin-2-yl)oxy)pyrrolidin-1-yl)methyl)thiazol-2-yl)acetamide] was run?
**A.** > 9.00

**Q.** `CC(=O)Nc1nc(F)c(CN2C[C@H](Oc3ccc4nccn4n3)C[C@@H]2C)s1` [Example 108, N-(4-fluoro-5-(((2S,4R)-4-(imidazo[1,2-b]pyridazin-6-yloxy)-2-methylpyrrolidin-1-yl)methyl)thiazol-2-yl)acetamide] was tested. Which pIC50 did it give?
**A.** > 9.00

**Q.** `CC(=O)Nc1ncc(CN2C[C@H](Oc3nc4cccnc4n3C)C[C@@H]2C)s1` [Example 91, N-(5-(((2S,4R)-2-methyl-4-((3-methyl-3H-imidazo[4,5-b]pyridin-2-yl)oxy)pyrrolidin-1-yl)methyl)thiazol-2-yl)acetamide] was tested. Which pIC50 did it give?
**A.** 8.30

**Q.** With `CC(=O)Nc1nc(F)c(CN2C[C@H](Oc3ncc4ccn(C)c4n3)C[C@@H]2C)s1` [Example 110, N-(4-fluoro-5-(((2S,4R)-2-methyl-4-((7-methyl-7H-pyrrolo[2,3-d]pyrimidin-2-yl)oxy)pyrrolidin-1-yl)methyl)thiazol-2-yl)acetamide] as the compound, how does the pIC50 read?
**A.** > 9.00

**Q.** How did the pIC50 turn out when `CC(=O)Nc1ncc(CN2C[C@H](Oc3ncnc4cc(OC(F)F)ccc34)C[C@@H]2C)s1` [Example 14, N-(5-(((2S,4R)-4-((7-(difluoromethoxy)quinazolin-4-yl)oxy)-2-methylpyrrolidin-1-yl)methyl)thiazol-2-yl)acetamide] was run?
**A.** > 9.00

**Q.** With `CC(=O)Nc1nc(F)c(CN2C[C@H](Oc3nccn4cnnc34)C[C@@H]2C)s1` [Example 101, N-(5-(((2S,4R)-4-([1,2,4]triazolo[4,3-a]pyrazin-8-yloxy)-2-methylpyrrolidin-1-yl)methyl)-4-fluorothiazol-2-yl)acetamide] as the compound, how does the pIC50 read?
**A.** > 9.00

**Q.** With `CC(=O)Nc1nc(F)c(CN2C[C@H](Oc3cnc4ccnn4c3)C[C@@H]2C)s1` [Example 170, N-(4-fluoro-5-(((2S,4R)-2-methyl-4-(pyrazolo[1,5-a]pyrimidin-6-yloxy)pyrrolidin-1-yl)methyl)thiazol-2-yl)acetamide] as the compound, how does the pIC50 read?
**A.** > 9.00

**Q.** With `CC(=O)Nc1nc(F)c(CN2C[C@H](Oc3ccc4ncnn4c3)C[C@@H]2C)s1` [Example 172, N-(5-(((2S,4R)-4-([1,2,4]triazolo[1,5-a]pyridin-6-yloxy)-2-methylpyrrolidin-1-yl)methyl)-4-fluorothiazol-2-yl)acetamide] as the compound, how does the pIC50 read?
**A.** > 9.00

**Q.** With `CC(=O)Nc1ncc(CN2C[C@H](Oc3c(Cl)ccn4ccnc34)C[C@@H]2C)s1` [Example 38, N-(5-(((2S,4R)-4-((7-chloroimidazo[1,2-a]pyridin-8-yl)oxy)-2-methylpyrrolidin-1-yl)methyl)thiazol-2-yl)acetamide] as the compound, how does the pIC50 read?
**A.** > 9.00

**Q.** `COc1ccc2ccc(O[C@@H]3C[C@H](C)N(Cc4cnc(NC(C)=O)s4)C3)nc2c1` [Example 79, N-(5-(((2S,4R)-4-((7-methoxyquinolin-2-yl)oxy)-2-methylpyrrolidin-1-yl)methyl)thiazol-2-yl)acetamide] was tested. Which pIC50 did it give?
**A.** > 9.00

**Q.** With `CC(=O)Nc1ncc(CN2C[C@H](Oc3ccnc4cc(F)ccc34)C[C@@H]2C)s1` [Example 17, N-(5-(((2S,4R)-4-((7-fluoroquinolin-4-yl)oxy)-2-methylpyrrolidin-1-yl)methyl)thiazol-2-yl)acetamide] as the compound, how does the pIC50 read?
**A.** > 9.00

**Q.** How did the pIC50 turn out when `CC(=O)Nc1nc(F)c(CN2C[C@H](Oc3nnc4cnccn34)C[C@@H]2C)s1` [Example 174, N-(5-(((2S,4R)-4-([1,2,4]triazolo[4,3-a]pyrazin-3-yloxy)-2-methylpyrrolidin-1-yl)methyl)-4-fluorothiazol-2-yl)acetamide] was run?
**A.** 8.59

**Q.** How did the pIC50 turn out when `CC(=O)Nc1nc(F)c(CN2C[C@H](Oc3ccnc4c3cnn4C)C[C@@H]2C)s1` [Example 139, N-(4-fluoro-5-(((2S,4R)-2-methyl-4-((1-methyl-1H-pyrazolo[3,4-b]pyridin-4-yl)oxy)pyrrolidin-1-yl)methyl)thiazol-2-yl)acetamide] was run?
**A.** > 9.00

**Q.** With `COc1nc(O[C@@H]2C[C@H](C)N(Cc3sc(NC(C)=O)nc3F)C2)cc2cc(F)ccc12` [Example 131, N-(4-fluoro-5-(((2S,4R)-4-((6-fluoro-1-methoxyisoquinolin-3-yl)oxy)-2-methylpyrrolidin-1-yl)methyl)thiazol-2-yl)acetamide] as the compound, how does the pIC50 read?
**A.** > 9.00

**Q.** How did the pIC50 turn out when `CC(=O)Nc1ncc(CN2C[C@H](Oc3cc4nc(C)cn4cn3)C[C@@H]2C)s1` [Example 40, N-(5-(((2S,4R)-2-methyl-4-((2-methylimidazo[1,2-c]pyrimidin-7-yl)oxy)pyrrolidin-1-yl)methyl)thiazol-2-yl)acetamide] was run?
**A.** > 9.00

**Q.** With `CC(=O)Nc1ncc(CN2C[C@H](Oc3ccnc4ccoc34)C[C@@H]2C)s1` [Example 48, N-(5-(((2S,4R)-4-(furo[3,2-b]pyridin-7-yloxy)-2-methylpyrrolidin-1-yl)methyl)thiazol-2-yl)acetamide] as the compound, how does the pIC50 read?
**A.** > 9.00

**Q.** How did the pIC50 turn out when `CC(=O)Nc1ncc(CN2C[C@H](Oc3nccc4ccc(C)cc34)C[C@@H]2C)s1` [Example 30, N-(5-(((2S,4R)-2-methyl-4-((7-methylisoquinolin-1-yl)oxy)pyrrolidin-1-yl)methyl)thiazol-2-yl)acetamide] was run?
**A.** 8.10

**Q.** How did the pIC50 turn out when `CC(=O)Nc1nc(F)c(CN2C[C@H](Oc3ccc4ccn(C)c4n3)C[C@@H]2C)s1` [Example 163, N-(4-fluoro-5-(((2S,4R)-2-methyl-4-((1-methyl-1H-pyrrolo[2,3-b]pyridin-6-yl)oxy)pyrrolidin-1-yl)methyl)thiazol-2-yl)acetamide] was run?
**A.** > 9.00
